Measured values: ChEMBL document CHEMBL4421719, “Modulation of k2p channels” (2016)
pEC50: −log10 of the molar value. The source made the active and inactive calls. No cut-off for these calls is given here.

What was measured:
Type in all cases: cell-based
[1] = target: T1, Potassium channel subfamily K member 2 (Homo sapiens) (UniProt O95069); experiment: Reversible activation of K2P2.1 (unknown origin) expressed in HEK293T cells assessed as effect on channel currents at -0 mV holding potential at 5 to 20 uM by two-electrode voltage clamp assay relative to control
T1 sequence (whole entry): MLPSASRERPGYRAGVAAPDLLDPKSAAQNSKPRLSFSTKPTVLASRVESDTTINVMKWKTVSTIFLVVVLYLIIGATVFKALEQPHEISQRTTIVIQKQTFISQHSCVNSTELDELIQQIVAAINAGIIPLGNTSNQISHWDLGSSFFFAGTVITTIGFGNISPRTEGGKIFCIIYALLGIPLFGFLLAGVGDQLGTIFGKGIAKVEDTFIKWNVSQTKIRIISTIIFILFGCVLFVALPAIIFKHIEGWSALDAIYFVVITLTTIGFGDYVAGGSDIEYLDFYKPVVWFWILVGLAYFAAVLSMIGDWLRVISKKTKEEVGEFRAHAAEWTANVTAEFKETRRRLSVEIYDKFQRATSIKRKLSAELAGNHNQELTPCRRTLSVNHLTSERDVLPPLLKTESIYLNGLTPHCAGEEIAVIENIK

[2] = target: T1, Potassium channel subfamily K member 2 (Homo sapiens); experiment: Activation of K2P2.1 (unknown origin) expressed in Xenopus oocytes assessed as effect on channel currents at -80 mV holding at 100 uM by two-electrode voltage clamp assay relative to control
[3] = target: T1, Potassium channel subfamily K member 2 (Homo sapiens); experiment: Activation of K2P2.1 (unknown origin) expressed in whole HEK293T cells assessed as effect on channel currents by measuring time of return to baseline following compound washout at 20 uM by two-electrode voltage clamp assay relative to control
[4] = target: T2, Potassium channel subfamily K member 4 (Homo sapiens) (UniProt Q9NYG8); experiment: Activation of K2P4.1 (unknown origin) expressed in Xenopus oocytes assessed as effect on channel currents at -80 mV holding potential by two-electrode voltage clamp assay relative to control
T2 sequence (whole entry): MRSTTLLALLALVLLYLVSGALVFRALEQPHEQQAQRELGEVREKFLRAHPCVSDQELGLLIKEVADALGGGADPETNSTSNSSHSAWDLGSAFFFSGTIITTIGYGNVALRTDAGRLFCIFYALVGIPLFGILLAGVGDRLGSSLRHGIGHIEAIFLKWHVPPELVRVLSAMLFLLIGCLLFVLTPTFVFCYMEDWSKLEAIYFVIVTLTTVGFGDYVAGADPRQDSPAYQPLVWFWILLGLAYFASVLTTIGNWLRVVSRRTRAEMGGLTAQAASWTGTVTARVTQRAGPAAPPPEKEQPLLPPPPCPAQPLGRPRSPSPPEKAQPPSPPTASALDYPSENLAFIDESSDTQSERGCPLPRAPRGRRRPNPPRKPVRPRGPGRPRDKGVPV

[5] = system: Potassium channel subfamily K member 2 (Homo sapiens), O95069 [UNDEFINED MUTATION]; experiment: Activation of K2P2.1 W275S mutant (unknown origin) expressed in Xenopus oocytes assessed as effect on channel currents at 50 uM at -80 mV holding potential by two-electrode voltage clamp assay
[6] = target: T3, Potassium channel subfamily K member 18 (Homo sapiens) (UniProt Q7Z418); experiment: Activation of K2P18.1 (unknown origin) expressed in Xenopus oocytes assessed as effect on channel currents at -80 mV holding potential by two-electrode voltage clamp assay relative to control
T3 sequence (whole entry): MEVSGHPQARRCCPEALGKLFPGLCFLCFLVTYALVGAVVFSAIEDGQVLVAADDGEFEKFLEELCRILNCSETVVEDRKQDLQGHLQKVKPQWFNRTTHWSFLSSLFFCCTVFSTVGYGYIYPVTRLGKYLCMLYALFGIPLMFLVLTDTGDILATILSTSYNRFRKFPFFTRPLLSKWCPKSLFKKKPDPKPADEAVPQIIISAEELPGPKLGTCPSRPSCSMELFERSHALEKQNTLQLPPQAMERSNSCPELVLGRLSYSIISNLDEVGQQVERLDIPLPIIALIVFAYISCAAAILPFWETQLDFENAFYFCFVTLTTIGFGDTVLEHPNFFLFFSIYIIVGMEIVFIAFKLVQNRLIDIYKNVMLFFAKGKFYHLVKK

[7] = target: T3, Potassium channel subfamily K member 18 (Homo sapiens); experiment: Activation of K2P18.1 (unknown origin) expressed in Xenopus oocytes assessed as effect on channel currents at -80 mV holding potential at 100 uM by two-electrode voltage clamp assay relative to control
[8] = target: T1, Potassium channel subfamily K member 2 (Homo sapiens); experiment: Activation of K2P2.1 (unknown origin) expressed in HEK293T cell membranes in outside-out patch configuration assessed as effect on channel currents by measuring time of half-maximal activation at 20 uM by two-electrode voltage clamp assay relative to control
[9] = target: T4, Potassium channel subfamily K member 2 (Homo sapiens, UniProt O95069); experiment: Activation of K2P2.1 (unknown origin) expressed in Xenopus oocytes assessed as effect on channel currents at -80 mV holding potential by two-electrode voltage clamp assay
T4 sequence (O95069 whole entry): T1 sequence (whole entry)

[10] = target: T1, Potassium channel subfamily K member 2 (Homo sapiens); experiment: Activation of K2P2.1 (unknown origin) expressed in HEK293T cell membranes in outside-out patch configuration assessed as effect on channel currents at 20 uM by two-electrode voltage clamp assay relative to control
[11] = target: Potassium channel subfamily K member 2 (Homo sapiens, UniProt O95069, W275S); experiment: Activation of K2P2.1 W275S mutant (unknown origin) expressed in Xenopus oocytes assessed as effect on channel currents at -80 mV holding potential by two-electrode voltage clamp assay
[12] = target: Potassium channel subfamily K member 3 (Homo sapiens) (UniProt O14649); experiment: Activation of K2P3.1 (unknown origin) expressed in Xenopus oocytes assessed as effect on channel currents at -80 mV holding potential by two-electrode voltage clamp assay relative to control
[13] = system: Potassium channel subfamily K member 2 (Homo sapiens), O95069 [UNDEFINED MUTATION]; experiment: Activation of K2P2.1 W275S mutant (unknown origin) expressed in Xenopus oocytes assessed as effect on channel currents at -80 mV holding potential by two-electrode voltage clamp assay relative to control
[14] = target: Potassium voltage-gated channel subfamily KQT member 2 (Homo sapiens) (UniProt O43526); experiment: Activation of Kv7.2 (unknown origin) expressed in Xenopus oocytes assessed as effect on channel currents at 100 uM at -80 mV holding potential by two-electrode voltage clamp assay relative to control
[15] = target: Potassium channel subfamily K member 9 (Homo sapiens) (UniProt Q9NPC2); experiment: Activation of K2P9.1 (unknown origin) expressed in Xenopus oocytes assessed as effect on channel currents at 150 uM at -80 mV holding potential by two-electrode voltage clamp assay relative to control
[16] = system: Potassium channel subfamily K member 2 (Homo sapiens), O95069 [UNDEFINED MUTATION]; experiment: Activation of K2P2.1 G137I mutant (unknown origin) expressed in Xenopus oocytes assessed as effect on channel currents at 150 uM at -80 mV holding potential by two-electrode voltage clamp assay relative to control

Sequence of Potassium channel subfamily K member 9 (Homo sapiens) (Q9NPC2 whole entry): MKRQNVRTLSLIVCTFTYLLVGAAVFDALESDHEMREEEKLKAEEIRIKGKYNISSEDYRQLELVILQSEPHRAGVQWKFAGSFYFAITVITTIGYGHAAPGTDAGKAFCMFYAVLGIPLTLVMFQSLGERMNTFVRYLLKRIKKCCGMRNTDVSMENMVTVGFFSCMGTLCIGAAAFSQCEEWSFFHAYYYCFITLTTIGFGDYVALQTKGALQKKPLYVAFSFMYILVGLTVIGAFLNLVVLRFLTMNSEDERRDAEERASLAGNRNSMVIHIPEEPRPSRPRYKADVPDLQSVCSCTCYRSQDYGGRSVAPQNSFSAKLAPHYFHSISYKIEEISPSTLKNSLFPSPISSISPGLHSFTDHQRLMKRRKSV
Sequence of Potassium channel subfamily K member 3 (Homo sapiens) (O14649 whole entry, looked up): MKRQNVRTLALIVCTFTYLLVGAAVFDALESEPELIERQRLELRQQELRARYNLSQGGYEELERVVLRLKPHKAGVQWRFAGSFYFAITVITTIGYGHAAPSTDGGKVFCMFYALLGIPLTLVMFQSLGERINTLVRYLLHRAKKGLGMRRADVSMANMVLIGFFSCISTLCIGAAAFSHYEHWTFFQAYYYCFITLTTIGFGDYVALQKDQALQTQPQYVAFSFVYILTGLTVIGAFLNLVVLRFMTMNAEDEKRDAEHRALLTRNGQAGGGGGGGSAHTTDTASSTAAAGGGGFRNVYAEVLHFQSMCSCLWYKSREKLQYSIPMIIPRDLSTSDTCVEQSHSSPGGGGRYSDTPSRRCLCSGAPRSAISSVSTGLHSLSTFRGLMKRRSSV
Sequence of Potassium voltage-gated channel subfamily KQT member 2 (Homo sapiens) (O43526 whole entry): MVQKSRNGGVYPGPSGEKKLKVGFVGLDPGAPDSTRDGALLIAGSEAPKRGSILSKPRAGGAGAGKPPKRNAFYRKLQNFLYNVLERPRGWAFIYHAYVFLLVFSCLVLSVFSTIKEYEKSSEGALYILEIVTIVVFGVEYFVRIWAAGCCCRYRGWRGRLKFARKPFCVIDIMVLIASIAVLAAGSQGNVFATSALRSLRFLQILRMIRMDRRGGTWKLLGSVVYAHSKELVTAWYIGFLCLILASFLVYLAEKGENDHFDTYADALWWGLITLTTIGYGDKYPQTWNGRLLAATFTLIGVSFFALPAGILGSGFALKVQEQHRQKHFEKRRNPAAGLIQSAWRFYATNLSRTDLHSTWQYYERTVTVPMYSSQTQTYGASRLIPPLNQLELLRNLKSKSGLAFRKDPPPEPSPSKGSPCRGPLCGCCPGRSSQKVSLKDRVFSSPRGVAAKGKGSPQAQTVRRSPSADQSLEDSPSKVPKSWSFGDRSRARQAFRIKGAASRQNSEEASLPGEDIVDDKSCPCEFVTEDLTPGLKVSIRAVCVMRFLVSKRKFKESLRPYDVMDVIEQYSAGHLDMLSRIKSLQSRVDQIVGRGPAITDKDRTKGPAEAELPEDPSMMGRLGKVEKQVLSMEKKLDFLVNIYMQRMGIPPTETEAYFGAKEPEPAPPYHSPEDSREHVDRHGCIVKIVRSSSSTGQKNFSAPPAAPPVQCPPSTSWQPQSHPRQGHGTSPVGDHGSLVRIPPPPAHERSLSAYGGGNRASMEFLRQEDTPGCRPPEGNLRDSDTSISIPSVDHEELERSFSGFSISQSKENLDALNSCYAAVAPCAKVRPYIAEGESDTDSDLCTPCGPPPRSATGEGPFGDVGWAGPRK

Activity [1]: Active | Emax [2]: 11.1% | T1/2 [3]: 3.9 s | Emax [4]: 14.7 | Activity [5]: inactive | Emax [6]: 0.9 | Emax [7]: 0.9% | T1/2 [8]: 4.6 s | pEC50 [9]: 4.41 to 4.44 | Activity [10]: Active | pEC50 [11]: 4.66 | Emax [12]: 1.1 | Emax [13]: 5.1 | Activity [14]: inactive | Emax [15]: 2.1 | Emax [16]: 0.9
SMILES: CC1(C)c2cc(Cl)ccc2N(CCc2nnn[nH]2)c2ccc(Cl)cc21
